According to patent publication US10363250B2, “Folate receptor binding conjugates of antifolates” (Purdue Research Foundation, priority 2008, dated 2019):
“And” between values parts separate entries of the source, which are not always exact repeats. Equal values may be shown once. Read-outs that look alike come from different tables or passages of the source.

Legend:
human FRs (KB cells) = target: T1, human FRs (KB cells) (Homo sapiens, UniProt P15328); assay: Cell-Based Relative Affinity Assay (competition with 3H-FA on adherent KB cells); format: binding; conditions: for fold weaker affinity / fold lower RA: versus FA (or the Glu-bearing parent); for change of RA with incubation temperature: on ice versus 37° C.
T1 construct: endogenous in cells; host or cells: KB cells
Method: Cell culture. Cells were grown continuously as a monolayer using folate-free RPMI medium (FFRPMI) containing 10% heat-inactivated fetal calf serum (HIFCS) at 37° C. in a 5% CO2/95% air-humidified atmosphere with no antibiotics. The HIFCS contained its normal complement of endogenous folates which enabled the cells to sustain growth in this more physiologically-relevant medium (Leamon et al. Proc Natl Acad Sci, USA 1991; 88:5572-6). All cell experiments were performed using FFRPMI containing 10% HIFCS (FFRPMI/HIFCS) as the growth medium unless otherwise specified.
Cell-Based Relative Affinity Assay. The relative affinity of each test article was determined based on a method initially described by Westerhoff et al. Mol Pharm 1995; 48:459-71) with modifications. Briefly, FR-positive KB cells were seeded in 24-well Falcon plates and allowed to form adherent monolayers (>75% confluent) overnight in FFRPMI/HIFCS. […] Cells were incubated for 1 h on ice or in an incubator at 37° C. (as specified in the figure legends) and then rinsed 3 times with 0.5 mL of PBS. Five hundred microliters of 1% sodium dodecyisulfate in PBS were added to each well; after 5 min, cell lysates were collected, transferred to individual vials containing 5 mL of scintillation cocktail, and then counted for radioactivity. […] Relative affinities were defined as described above.
(§1) Relative Affinity Assay Format. The in vitro RA assay described within measures a ligand's ability to compete with FA for binding to FRs. To date, cultured cells have most commonly been used as the FR source. However, herein described is the evaluation of the use of a cell-free, immobilized FR plate system for this assay. This latter method utilized a microtiter plate to which commercially-available bovine milk soluble FBP had been chemically anchored. Similar to the cell-based method, ^3H-FA can compete directly with increasing concentrations of test article for binding to the attached FRs; however, unlike the cell-based method, bound radiolabel can be conveniently “stripped” from the plate by rinsing with a mildly acidic saline solution. […] Likewise, values lower than unity reflect weaker affinity, and values higher than unity reflect stronger affinity.

Folate Receptor = Folate Receptor (Homo sapiens, UniProt P15328); conditions: Table 1 footnote (a): Westerhoff et al. 1995; cited from earlier work
[1] = tested on: human KB tumor cells xenografts; assay: Activity against subcutaneous KB tumors; format: in vivo, mice; conditions: 2 μmol/kg TIW/2 weeks
Method: Effect On Transplanted KB Tumors. Mice are injected, subcutaneously with human KB tumor cells xenografts.

KB cells = assay: Activity against KB cells (72 h continuous assay); format: cell-based; conditions: Homo sapiens
[2] = target: bovine milk soluble folate binding protein (sFBP) (Bos taurus, UniProt P02702); conditions: plate-anchored bovine milk sFBP, cold incubation, absence of serum
Source text: as §1

[3] = Remaining in solution during the RA assay period; format: physicochemical; conditions: even at 30 μM, throughout the assay period
Source text: It is further appreciated that among the folate analogs, it was interesting to observe the importance of having a charged moiety in close proximity to the Pte group. For example, the RA value increased 90 to>300-fold when a Glu residue was attached to Pte, and N^10-propargyl 5,8-dideazapteroic acid, respectively. […] But, two exceptions were found. […] Therefore, without being hound by theory, it is believed that the lower RA value observed for EC216 may result from steric interference caused by the closer proximity of the drug (DAVLBH) to the Pte unit.

[4] = Table 1, adherent KB cells, 10% serum, 37° C., FA = 1
[5] = KB cells, 10% serum (10% serum/FDRPMI)
[6] = Table 2, adherent KB cells, 10% serum, 37° C., FA = 1

Folate Receptor, sequence (P15328 25-234): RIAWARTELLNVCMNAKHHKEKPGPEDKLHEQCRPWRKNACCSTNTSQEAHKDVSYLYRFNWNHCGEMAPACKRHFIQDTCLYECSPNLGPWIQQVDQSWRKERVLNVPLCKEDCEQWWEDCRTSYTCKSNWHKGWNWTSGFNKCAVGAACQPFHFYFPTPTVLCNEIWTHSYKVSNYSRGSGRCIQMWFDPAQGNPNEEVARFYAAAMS
T1 sequence (P15328 25-234): as above
bovine milk soluble folate binding protein (sFBP), sequence (P02702 20-234): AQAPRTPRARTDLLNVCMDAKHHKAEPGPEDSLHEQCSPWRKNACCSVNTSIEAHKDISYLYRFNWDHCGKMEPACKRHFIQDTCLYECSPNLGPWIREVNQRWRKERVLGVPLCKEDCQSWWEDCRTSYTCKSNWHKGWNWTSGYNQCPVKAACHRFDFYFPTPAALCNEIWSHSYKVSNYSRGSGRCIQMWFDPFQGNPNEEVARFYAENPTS

Nc1nc2c(c(=O)[nH]1)N(C=O)C(CNc1ccc(C(=O)N[C@@H](CCC(=O)O)C(=O)O)cc1)CN2 (stereo partly drawn) [5-formyl-tetrahydrofolate, 5-formyltetrahydrofolate]
fold weaker affinity / fold lower RA (human FRs (KB cells); KB cells, 10% serum, 37° C.): 125
Fold Weaker Affinity from FA (human FRs (KB cells); Table 1, 37° C., 10% serum): 125
Relative Binding Affinity (0° C.) (human FRs (KB cells); Table 1, KB cells, FA = 1): 0.15
Relative Binding Affinity (37° C.) (human FRs (KB cells); [4]): 0.008
Relative Binding Affinity (0° C.), value in parentheses (Folate Receptor): 0.1

CN1c2c(nc(N)[nH]c2=O)NCC1CNc1ccc(C(=O)N[C@@H](CCC(=O)O)C(=O)O)cc1 (stereo partly drawn) [5-methyl-tetrahydrofolate, 5-methyltetrahydrofolate]
fold weaker affinity / fold lower RA (human FRs (KB cells); KB cells, 10% serum, 37° C.): 14
Fold Weaker Affinity from FA (human FRs (KB cells); Table 1, 37° C., 10% serum): 14
Relative Binding Affinity (37° C.) (human FRs (KB cells); [4]): 0.070
Relative Binding Affinity (0° C.), value in parentheses (Folate Receptor): (0.35)^(a)

C#CCN(Cc1ccc2nc(N)[nH]c(=O)c2c1)c1ccc(C(=O)N[C@@H](CCC(=O)O)C(=O)O)cc1 [CB3717, N10-propargyl-5,8-dideazafolic acid]
complete responses [1]: 0/5
IC50 (KB cells; FIG. 9 Panel A): 5 nM
IC50 (KB cells; FIG. 9 Panel B): 19 nM
RA (relative affinity) (human FRs (KB cells); [5]): 0.148
RA / competitive binding in words (human FRs (KB cells); KB cells, 10% serum, 37° C.): equal to that of FA
Fold Weaker Affinity from FA (human FRs (KB cells); Table 1, 37° C., 10% serum): 1.0
Relative Binding Affinity (37° C.) (human FRs (KB cells); [4]): 1.000

C#CCN(Cc1ccc2nc(N)[nH]c(=O)c2c1)c1ccc(C(=O)O)cc1 [Des-glutamyl CB3717, N^10-propargyl 5,8-dideazapteroic acid]
fold weaker affinity / fold lower RA (human FRs (KB cells); KB cells, 10% serum, 37° C.): > 300
Fold Weaker Affinity from FA (human FRs (KB cells); Table 1, 37° C., 10% serum): 500
Relative Binding Affinity (37° C.) (human FRs (KB cells); [4]): 0.002

Nc1nc2ncc(CNc3ccc(C(=O)N[C@@H](CCC(=O)NCCNC(=S)Nc4ccc(-c5c6ccc(=O)cc-6oc6cc(O)ccc56)c(C(=O)O)c4)C(=O)O)cc3)nc2c(=O)[nH]1 [EC17, Pte-γGlu-eda-FITC]
Fold Weaker Affinity form FA (human FRs (KB cells); Table 2, 37° C., 10% serum): 1.2
Relative Binding Affinity (0° C.) (human FRs (KB cells); Table 2, KB cells, FA = 1): 0.29
Relative Binding Affinity (37° C.) (human FRs (KB cells); [6]): 0.45
change of RA with incubation temperature (human FRs (KB cells); no serum): increased with temperature

Nc1nc2ncc(CNc3ccc(C(=O)N[C@@H](CCC(=O)NC[C@H](N)C(=O)N[C@@H](CC(=O)O)C(=O)N[C@@H](CS)C(=O)O)C(=O)O)cc3)nc2c(=O)[nH]1 [EC20, Pte-γGlūβDpr-Asp-Cys]
Fold Weaker Affinity form FA (human FRs (KB cells); Table 2, 37° C., 10% serum): 1.1
Relative Binding Affinity (37° C.) (human FRs (KB cells); [6]): 0.92

CO[C@@]12[C@H](COC(N)=O)C3=C(C(=O)C(C)=C(NCCSSC[C@H](NC(=O)CC[C@@H](NC(=O)c4ccc(NCc5cnc6nc(N)[nH]c(=O)c6n5)cc4)C(=O)O)C(=O)O)C3=O)N1C[C@@H]1N[C@@H]12 [EC72, Pte-γGlu-Cys-L-MMC]
Fold Weaker Affinity form FA (human FRs (KB cells); Table 2, 37° C., 10% serum): 1.5
Relative Binding Affinity (0° C.) (human FRs (KB cells); Table 2, KB cells, FA = 1): 0.53
Relative Binding Affinity (37° C.) (human FRs (KB cells); [6]): 0.59
change of RA with incubation temperature (human FRs (KB cells); no serum): increased with temperature

CC[C@]1(O)CC2CN(CCc3c([nH]c4ccccc34)[C@@](C(=O)OC)(c3cc4c(cc3OC)N(C)[C@H]3[C@@](O)(C(=O)N/N=C(\C)c5ccc(N6C(=O)CC(SC[C@H](NC(=O)[C@H](CC(=O)O)NC(=O)[C@H](CC(=O)O)NC(=O)[C@H](CCCNC(=N)N)NC(=O)[C@H](CC(=O)O)NC(=O)CC[C@H](NC(=O)c7ccc(NCc8cnc9nc(N)[nH]c(=O)c9n8)cc7)C(=O)O)C(=O)O)C6=O)cc5)[C@H](O)[C@]5(CC)C=CCN6CC[C@]43[C@@H]65)C2)C1 (stereo partly drawn) [EC140, EC119-Hyd-DAVLBH]
RA (relative affinity) (human FRs (KB cells); [5]): 0.50
RA (relative affinity) (human FRs (KB cells); KB cells, 37° C., no serum): 0.12
fold change of RA with serum versus absence of serum (human FRs (KB cells); KB cells, serum versus no serum): 4 and 4.1
Fold Weaker Affinity form FA (human FRs (KB cells); Table 2, 37° C., 10% serum): 2.0
Relative Binding Affinity (37° C.) (human FRs (KB cells); [6]): 0.50

CC[C@]1(O)CC2CN(CCc3c([nH]c4ccccc34)[C@@](C(=O)OC)(c3cc4c(cc3OC)N(C)[C@H]3[C@@](O)(C(=O)NNC(=O)OCCSSC[C@H](NC(=O)[C@H](CC(=O)O)NC(=O)[C@H](CC(=O)O)NC(=O)[C@H](CCCNC(=N)N)NC(=O)[C@H](CC(=O)O)NC(=O)CC[C@H](NC(=O)c5ccc(NCc6cnc7nc(N)[nH]c(=O)c7n6)cc5)C(=O)O)C(=O)O)[C@H](O)[C@]5(CC)C=CCN6CC[C@]43[C@@H]65)C2)C1 (stereo partly drawn) [EC145, EC119-L-DAVLBH]
complete responses [1]: 2/5
Fold Weaker Affinity form FA (human FRs (KB cells)): 2.1
Relative Binding Affinity (37° C.) (human FRs (KB cells)): 0.47
fold change of RA with serum versus absence of serum (human FRs (KB cells)): 2.4
RA (relative affinity) [2]: 0.12

CC[C@]1(O)CC2CN(CCc3c([nH]c4ccccc34)[C@@](C(=O)OC)(c3cc4c(cc3OC)N(C)[C@H]3[C@@](O)(C(=O)NNC(=O)OCCSSC[C@H](NC(=O)c5ccc(NCc6cnc7nc(N)[nH]c(=O)c7n6)cc5)C(=O)O)[C@H](O)[C@]5(CC)C=CCN6CC[C@]43[C@@H]65)C2)C1 (stereo partly drawn) [EC216, Pte-Cys-L-DAVLBH]
fold decrease in RA versus EC145 (human FRs (KB cells); KB cells, 10% serum, 37° C., shortened spacer): 10
Fold Weaker Affinity form FA (human FRs (KB cells); Table 2, 37° C., 10% serum): 22
Relative Binding Affinity (37° C.) (human FRs (KB cells); [6]): 0.046
remaining in solution [3]: remain in solution

C#CCN(Cc1ccc2nc(N)[nH]c(=O)c2c1)c1ccc(C(=O)O)cc1 [EC283]
RA (relative affinity) (human FRs (KB cells); [5]): 0.002

Nc1nc2ncc(CNc3ccc(C(=O)N[C@@H](CCC(=O)O)C(=O)O)cc3)nc2c(=O)[nH]1 [Folic Acid]
variation of calculated RA values among serum conditions (human FRs (KB cells); 0 to 100% sera): 13%

CN(Cc1cnc2nc(N)[nH]c(=N)c2n1)c1ccc(C(=O)N[C@@H](CCC(=O)O)C(=O)O)cc1 [Methotrexate]
fold weaker affinity / fold lower RA (human FRs (KB cells); KB cells, 10% serum, 37° C.): 50
Fold Weaker Affinity from FA (human FRs (KB cells); Table 1, 37° C., 10% serum): 50
Relative Binding Affinity (0° C.) (human FRs (KB cells); Table 1, KB cells, FA = 1): 0.000
Relative Binding Affinity (37° C.) (human FRs (KB cells); [4]): 0.018
Relative Binding Affinity (0° C.), value in parentheses (Folate Receptor): 0.008

Nc1nc2[nH]cc(CCc3ccc(C(=O)N[C@@H](CCC(=O)O)C(=O)O)cc3)c2c(=O)[nH]1 [Pemetrexed, N-(4-(2-(2-amino-4,7-dihydro-4-oxo-3H-pyrrolo[2,3-D]pyrimidin-5-yl)ethyl)benzoyl]-L-glutamic acid]
Fold Weaker Affinity from FA (human FRs (KB cells); Table 1, 37° C., 10% serum): 500
Relative Binding Affinity (0° C.) (human FRs (KB cells); Table 1, KB cells, FA = 1): 0.26
Relative Binding Affinity (37° C.) (human FRs (KB cells); [4]): 0.002
Relative Binding Affinity (0° C.), value in parentheses (Folate Receptor): 1.5

Nc1nc2ncc(C(=O)O)nc2c(=O)[nH]1 [Pterin-6-carboxylate]
RA / competitive binding in words (human FRs (KB cells); KB cells, 10% serum, 37° C.): failed to block
Relative Binding Affinity (37° C.) (human FRs (KB cells); [4]): 0.000

Nc1nc2ncc(CNc3ccc(C(=O)O)cc3)nc2c(=O)[nH]1 [Pteroic Acid]
RA (relative affinity) (human FRs (KB cells); KB cells on ice / cold incubation, absence of serum): 0.42
fold weaker affinity than FA (human FRs (KB cells); KB cells on ice, no serum): 2.4
fold weaker affinity / fold lower RA (human FRs (KB cells); KB cells, 10% serum, 37° C., listed as Pte): 91 and 90
RA (relative affinity) (human FRs (KB cells); KB cells, 37° C., no serum): 0.01
fold weaker affinity than FA (human FRs (KB cells); KB cells, 37° C., no serum): 100
Fold Weaker Affinity from FA (human FRs (KB cells); Table 1, 37° C., 10% serum): 91
Relative Binding Affinity (0° C.) (human FRs (KB cells); Table 1, KB cells, FA = 1): 0.42
Relative Binding Affinity (37° C.) (human FRs (KB cells); [4]): 0.011

Cc1cc2nc3c(=O)[nH]c(=O)nc-3n(C[C@H](O)[C@H](O)[C@H](O)CO)c2cc1C [riboflavin]
competition with binding of 3H-FA (human FRs (KB cells); 300-fold molar excess, KB cells): not able to compete
RA / competitive binding in words (human FRs (KB cells); KB cells, 10% serum, 37° C.): very low
